Laboratory results published in patent publication US10179771B2 (GALAPAGOS NV, priority 2014, dated 2019).

biological target: T1, Recombinant human JAK1 catalytic domain (Homo sapiens, UniProt P23458); assay: JAK1 inhibition assay (polyGT substrate / Ulight-JAK1 peptide assay); assay type: biochemical; conditions: Comparative Compounds (Table VI)
T1 construct: Recombinant human JAK1 (catalytic domain, amino acids 866-1154; catalog number PV4774); purchased Invitrogen PV4774
Method: Recombinant human JAK1 catalytic domain (amino acids 850-1154; catalog number 08-144) was purchased from Carna Biosciences. 10 ng of JAK1 is incubated with 12.5 μg polyGT substrate (Sigma catalog number P0275) in kinase reaction buffer (15 mM Tris-HCl pH 7.5, 1 mM DTT, 0.01% Tween-20, 10 mM MgCl2, 2 μM non-radioactive ATP, 0.25 ρCi ^33P-gamma-ATP (GE Healthcare, catalog number AH9968) final concentrations) with or without 5 μL containing test compound or vehicle (DMSO, 1% final concentration), in a total volume of 25 μL, in a polypropylene 96-well plate (Greiner, V-bottom). After 45 min at 30° C., reactions are stopped by adding of 25 μL/well of 150 mM phosphoric acid. All of the terminated kinase reaction is transferred to prewashed (75 mM phosphoric acid) 96 well filter plates (Perkin Elmer catalog number 6005177) using a cell harvester (Perkin Elmer). Plates are washed 6 times with 300 μL per well of a 75 mM phosphoric acid solution and the bottom of the plates is sealed. 40 μL/well of Microscint-20 is added, the top of the plates is sealed and readout is performed using the Topcount (Perkin Elmer). Kinase activity is calculated by subtracting counts per min (cpm) obtained in the presence of a positive control inhibitor (10 μM staurosporine) from cpm obtained in the presence of vehicle. The ability of a test compound to inhibit this activity is determined as:
[formula] • RFU test compound=RFU determined for sample with test compound present • RFU control=RFU determined for sample with positive control inhibitor • RFU vehicle=RFU determined in the presence of vehicle
Dose dilution series are prepared for the compounds enabling the testing of dose-response effects in the JAK1 assay and the calculation of the IC50 for each compound. Each compound is routinely tested at concentration of 20 μM followed by a 1/3 serial dilution, 8 points (20 μM-6.67 μM-2.22 μM-740 nM-247 nM-82 nM-27 nM-9 nM) in a final concentration of 1% DMSO. When potency of compound series increased, more dilutions are prepared and/or the top concentration was lowered (e.g. 5 μM, 1 μM).
Recombinant human JAK1 (catalytic domain, amino acids 866-1154; catalog number PV4774) was purchased from Invitrogen. 1 ng of JAK1 was incubated with 20 nM Ulight-JAK1 (tyr1023) peptide (Perkin Elmer catalog number TRF0121) in kinase reaction buffer (25 mM MOPS pH6.8, 0.01% Brij-35, 5 mM MgCl2, 2 mM DTT, 7 μM ATP) with or without 4 μL containing test compound or vehicle (DMSO, 1% final concentration), in a total volume of 20 μL, in a white 384 Opti plate (Perkin Elmer, catalog number 6007290). After 60 min at room temperature, reactions were stopped by adding 20 μL/well of detection mixture (1× detection buffer (Perkin Elmer, catalog number CR97-100C), 0.5 nM Europium-anti-phosphotyrosine (PT66) (Perkin Elmer, catalog number AD0068), 10 mM EDTA). Readout is performed using the Envision with excitation at 320 nm and measuring emission at 615 nm (Perkin Elmer). Kinase activity was calculated by subtracting relative fluorescence units (RFU) obtained in the presence of a positive control inhibitor (10 μM staurosporine) from RFU obtained in the presence of vehicle. The ability of a test compound to inhibit this activity was determined as: Percentage inhibition=((RFU determined for sample with test compound present−RFU determined for sample with positive control inhibitor) divided by (RFU determined in the presence of vehicle−RFU determined for sample with positive control inhibitor))*100.
Dose dilution series were prepared for the compounds enabling the testing of dose-response effects in the JAK1 assay and the calculation of the IC50 for the compound. Each compound is routinely tested at concentration of 20 μM followed by a 1/5 serial dilution, 10 points in a final concentration of 1% DMSO. When potency of compound series increases, more dilutions are prepared and/or the top concentration are lowered (e.g. 5 μM, 1 μM). […]

T1 sequence (P23458 866-1154): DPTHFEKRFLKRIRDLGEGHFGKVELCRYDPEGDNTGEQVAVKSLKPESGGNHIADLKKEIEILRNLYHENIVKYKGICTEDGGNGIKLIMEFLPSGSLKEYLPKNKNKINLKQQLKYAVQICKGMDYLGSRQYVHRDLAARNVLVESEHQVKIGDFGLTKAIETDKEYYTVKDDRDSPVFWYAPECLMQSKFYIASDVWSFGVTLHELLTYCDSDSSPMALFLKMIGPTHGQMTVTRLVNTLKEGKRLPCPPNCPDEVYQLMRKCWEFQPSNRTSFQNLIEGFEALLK

Row | Compound | IC50 [µM]
1 | CN(c1ccc2ncn(C)c2c1)c1ccc(C#N)cc1F [C, 3-fluoro-4-[methyl-(3-methylbenzimidazol-5-yl)amino]benzonitrile, reference compound] | > 0.5
2 | CN(c1cc2c(cn1)ncn2C)c1ccc(C#N)cc1F [D, reference compound] | > 0.5

same assay, conditions: Illustrative Compounds of the invention (Table V)

Row | Compound | IC50 [µM]
3 | CCc1cc(C#N)cc(F)c1N(C)c1cc(NC(=O)[C@@H]2C[C@@H]2F)c2ncn(C)c2c1 (racemic) [Cpd 7, N-(6-((4-cyano-2-ethyl-6-fluorophenyl)(methyl)amino)-1-methyl-1H-benzo[d]imidazol-4-yl)-2-fluorocyclopropanecarboxamide (1S,2S)/(1R,2R) racemic mixture] | 0.0001 to 0.05
4 | CN(c1cc(NC(=O)[C@H]2C[C@H]2F)c2ncn(C)c2c1)c1ccc(S(C)(=O)=O)cc1F [Cpd 17, (1R,2R)-2-fluoro-N-[6-(2-fluoro-N-methyl-4-methylsulfonyl-anilino)-1-methyl-benzimidazol-4-yl]cyclopropanecarboxamide] | 0.1 to 0.5
5 | CCc1cc(S(C)(=O)=O)ncc1N(C)c1cc(NC(=O)C2CC2)c2ncn(C)c2c1 [Cpd 18, N-[6-[(4-ethyl-6-methylsulfonyl-3-pyridyl)-methyl-amino]-1-methyl-benzimidazol-4-yl]cyclopropanecarboxamide] | 0.0001 to 0.05
6 | CCc1cc(C#N)cc(F)c1N(C)c1cc(NC(=O)OC)c2ncn(C)c2c1 [Cpd 5, methyl 6-((4-cyano-2-ethyl-6-fluorophenyl)(methyl)amino)-1-methyl-1H-benzo[d]imidazol-4-ylcarbamate] | 0.0001 to 0.05
7 | Cc1cc(C#N)ncc1Oc1cc(NC(=O)C2CC2)c2ncn(C)c2c1 [Cpd 23, N-[6-[(6-cyano-4-methyl-3-pyridyl)oxy]-1-methyl-benzimidazol-4-yl]cyclopropanecarboxamide] | 0.0001 to 0.05
8 | CN(c1cc(NC(=O)[C@H]2C[C@H]2F)c2ncn(C)c2c1)c1ccc(C#N)nc1F [Cpd 14, (1R,2R)-N-[6-[(6-cyano-2-fluoro-3-pyridyl)-methyl-amino]-1-methyl-benzimidazol-4-yl]-2-fluoro-cyclopropanecarboxamide] | 0.0001 to 0.05
9 | Cc1cc(S(C)(=O)=O)cc(F)c1N(C)c1cc(NC(=O)[C@H]2C[C@H]2F)c2ncn(C)c2c1 [Cpd 16, (1R,2R)-2-fluoro-N-[6-(2-fluoro-N,6-dimethyl-4-methylsulfonyl-anilino)-1-methyl-benzimidazol-4-yl]cyclopropanecarboxamide] | 0.0001 to 0.05
10 | Cc1cc(F)ncc1N(C)c1cc(NC(=O)[C@H]2C[C@H]2F)c2ncn(C)c2c1 [Cpd 12, (1R,2R)-2-fluoro-N-[6-[(6-fluoro-4-methyl-3-pyridyl)-methyl-amino]-1-methyl-benzimidazol-4-yl]cyclopropanecarboxamide] | 0.0001 to 0.05
11 | Cc1cnc(C#N)c(F)c1N(C)c1cc(NC(=O)[C@H]2C[C@H]2F)c2ncn(C)c2c1 [Cpd 22, (1R,2R)-N-[6-[(2-cyano-3-fluoro-5-methyl-4-pyridyl)-methyl-amino]-1-methyl-benzimidazol-4-yl]-2-fluoro-cyclopropanecarboxamide] | 0.0001 to 0.05
12 | Cc1cc(C#N)ncc1Oc1cc(NC(=O)NC(C)C)c2ncn(C)c2c1 [Cpd 38, 1-[6-[(6-cyano-4-methyl-3-pyridyl)oxy]-1-methyl-benzimidazol-4-yl]-3-isopropyl-urea] | 0.0001 to 0.05
13 | CCS(=O)(=O)c1ccc(N(C)c2cc(NC(=O)[C@H]3C[C@H]3F)c3ncn(C)c3c2)c(C)c1 [Cpd 27, (1R,2R)-N-[6-(4-ethylsulfonyl-N,2-dimethyl-anilino)-1-methyl-benzimidazol-4-yl]-2-fluoro-cyclopropanecarboxamide] | 0.0001 to 0.05
14 | Cc1cc(S(C)(=O)=O)ccc1N(C)c1cc(NC(=O)[C@H]2C[C@H]2F)c2ncn(C)c2c1 [Cpd 26, (1R,2R)-N-[6-(N,2-dimethyl-4-methylsulfonyl-anilino)-1-methyl-benzimidazol-4-yl]-2-fluoro-cyclopropanecarboxamide] | 0.0001 to 0.05
15 | CCc1cc(C#N)ncc1N(C)c1cc(NC(=O)OC)c2ncn(C)c2c1 [Cpd 4, methyl 6-((6-cyano-4-ethylpyridin-3-yl)(methyl)amino)-1-methyl-1H-benzo[d]imidazol-4-ylcarbamate] | 0.0001 to 0.05
16 | CCc1cc(C#N)cc(F)c1Nc1cc(NC(=O)C2CC2)c2ncn(C)c2c1 [Cpd 2, N-(6-(4-cyano-2-ethyl-6-fluorophenylamino)-1-methyl-1H-benzo[d]imidazol-4-yl)cyclopropanecarboxamide] | 0.0001 to 0.05
17 | CCc1cc(C#N)ncc1Oc1cc(NC(=O)[C@H]2C[C@H]2F)c2ncn(C)c2c1 [Cpd 6, (1R,2R)-N-[6-[(6-cyano-4-ethyl-3-pyridyl)oxy]-1-methyl-benzimidazol-4-yl]-2-fluoro-cyclopropanecarboxamide] | 0.0001 to 0.05
18 | CCc1cc(S(C)(=O)=O)ncc1Oc1cc(NC(=O)C2CC2)c2ncn(C)c2c1 [Cpd 29, N-[6-[(4-ethyl-6-methylsulfonyl-3-pyridyl)oxy]-1-methyl-benzimidazol-4-yl]cyclopropanecarboxamide] | 0.0001 to 0.05
19 | Cc1cc(C#N)ncc1Oc1cc(N(C)C)c2ncn(C)c2c1 [Cpd 35, 5-[7-(dimethylamino)-3-methyl-benzimidazol-5-yl]oxy-4-methyl-pyridine-2-carbonitrile] | > 0.5
20 | Cc1cc(C#N)ncc1Oc1cc(NC(=O)N2CCOCC2)c2ncn(C)c2c1 [Cpd 37, N-[6-[(6-cyano-4-methyl-3-pyridyl)oxy]-1-methyl-benzimidazol-4-yl]morpholine-4-carboxamide] | > 0.5
21 | Cc1cc(C#N)ncc1N(C)c1cc(NC(=O)[C@H]2C[C@H]2F)c2ncn(C)c2c1 [Cpd 9, (1R,2R)-N-(6-((6-cyano-4-methylpyridin-3-yl)(methyl)amino)-1-methyl-1H-benzo[d]imidazol-4-yl)-2-fluorocyclopropanecarboxamide] | 0.0001 to 0.05
22 | CN(c1cc(NC(=O)[C@H]2C[C@H]2F)c2ncn(C)c2c1)c1c(F)cc(C#N)cc1Cl [Cpd 11, (1R,2R)-N-[6-(2-chloro-4-cyano-6-fluoro-N-methyl-anilino)-1-methyl-benzimidazol-4-yl]-2-fluoro-cyclopropanecarboxamide] | 0.0001 to 0.05
23 | CNc1cc(Oc2cnc(C#N)cc2C)cc2c1ncn2C [Cpd 34, 4-methyl-5-[3-methyl-7-(methylamino)benzimidazol-5-yl]oxy-pyridine-2-carbonitrile] | 0.1 to 0.5
24 | CCc1cc(C#N)ncc1N(C)c1cc(NC(=O)C2CC2)c2ncn(C)c2c1 [Cpd 1, N-(6-((6-cyano-4-ethylpyridin-3-yl)(methyl)amino)-1-methyl-1H-benzo[d]imidazol-4-yl)cyclopropanecarboxamide] | 0.0001 to 0.05
25 | CCc1cc(C#N)ncc1N(C)c1cc(NC(=O)[C@H]2C[C@H]2F)c2ncn(C)c2c1 [Cpd 8, (1R,2R)-N-(6-((6-cyano-4-ethylpyridin-3-yl)(methyl)amino)-1-methyl-1H-benzo[d]imidazol-4-yl)-2-fluorocyclopropanecarboxamide] | 0.0001 to 0.05
26 | Cc1cc(C#N)ncc1Oc1cc(N)c2ncn(C)c2c1 [Cpd 28, 5-(7-amino-3-methyl-benzimidazol-5-yl)oxy-4-methyl-pyridine-2-carbonitrile] | 0.05 to 0.1
27 | CCc1cc(C(N)=O)ncc1N(C)c1cc(NC(=O)C2CC2)c2ncn(C)c2c1 [Cpd 24, 5-((4-(cyclopropanecarboxamido)-1-methyl-1H-benzo[d]imidazol-6-yl)(methyl)amino)-4-ethylpicolinamide] | 0.0001 to 0.05
